# In patent US20240246920A1, “TRIAZOLE DERIVATIVES WITH ANTIFUNGAL ACTIVITY” (King's College London, priority 2020, published 2024):
# Like-named read-outs stand apart in the source and are kept apart here.
# Experiments:
# C. albicans NCPF3281 = assay: Candida panel MIC, serial dilution in 96-well plates; assay type: cell-based, Candida albicans; conditions: NCPF3281, read-out: MIC C. albicans NCPF3281
# How it was run: (§1)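 Broth microdilution in RPMI 1640 with 2% glucose and MOPS at pH 7.0, compound 128 to 0.25 μg/mL, inoculum 0.5-5×10^5/mL. Incubation 24 h at 37 °C. MIC is the lowest concentration giving ≥50% growth inhibition versus drug-free control, read at OD530.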
# C. glabrata NCPF8018 = assay: as above; assay type: cell-based, Candida glabrata; conditions: Nakaseomyces glabratus
# How it was run: (§2)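 MIC taken as lowest concentration inhibiting growth ≥50% relative to drug-free control, from OD530 after 24 hours at 37° C. Fungi at 0.5-5×10^5/mL were exposed to serially diluted compound in RPMI 1640/MOPS/2% glucose medium adjusted to pH 7.0.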
# C. krusei NCPF3876 = assay: microbe, parasite or virus in culture; assay type: cell-based, Candida krusei; conditions: Pichia kudriavzevii
# How it was run: as §2
# C. parapsilosis NCPF3209 = assay: microbe, parasite or virus in culture; assay type: cell-based, Candida parapsilosis; conditions: Lodderomyces parapsilosis
# How it was run: as §2
# Candida auris TDG2211 = assay: microbe, parasite or virus in culture; assay type: cell-based; conditions: Candidozyma auris, TDG2211; Table 4, extended panel; 24 hours, ≥50% inhibition; read-out: MIC Candida auris TDG2211
# How it was run: (§3)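 Starter cultures grown overnight at 37° C in RPMI 1640/MOPS/2% glucose, pH 7.0; inoculum 0.5-5×10^5/mL with compound serially diluted from DMSO into media.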
# Candida auris TDG2506 = assay: microbe, parasite or virus in culture; assay type: cell-based; conditions: Candidozyma auris, TDG2506; Table 4, extended panel; 24 hours, ≥50% inhibition; read-out: MIC Candida auris TDG2506
# How it was run: as §3
# C. auris TDG1912 = assay: Candida panel MIC, serial dilution in 96-well plates; assay type: cell-based; conditions: Candidozyma auris, TDG1912; Table 4; 24 hours, ≥50% inhibition; read-out: MIC C. auris TDG1912
# How it was run: as §1
# C. tropicalis NCPF8760 = assay: as above; assay type: cell-based
# How it was run: as §1
# Candida auris TDG1102 = assay: as above; assay type: cell-based; conditions: Candidozyma auris, TDG1102; Table 4, extended panel; 24 hours, ≥50% inhibition; read-out: MIC Candida auris TDG1102
# How it was run: as §1
# Candida auris TDG2512 = assay: as above; assay type: cell-based; conditions: Candidozyma auris, TDG2512; Table 4, extended panel; 24 hours, ≥50% inhibition; read-out: MIC Candida auris TDG2512
# How it was run: as §1
# C. auris 8971 = assay: as above; assay type: cell-based, Candida auris; conditions: Candidozyma auris, 8971; Table 4, extended panel; 24 hours, ≥50% inhibition; read-out: MIC C. auris 8971
# How it was run: as §3
# C. auris 8977 = assay: as above; assay type: cell-based, Candida auris; conditions: Candidozyma auris, 8977; Table 4, extended panel; 24 hours, ≥50% inhibition; read-out: MIC C. auris 8977
# How it was run: as §3
# C. auris 8984 = assay: as above; assay type: cell-based, Candida auris; conditions: Candidozyma auris, 8984; Table 4, extended panel; 24 hours, ≥50% inhibition; read-out: MIC C. auris 8984
# How it was run: as §3
# C. albicans 3363 = assay: Candida albicans panel MIC; assay type: cell-based; conditions: Table 6, Candida albicans panel
# Description: (§4) The minimum inhibitory concentration of test compounds were determined in a panel of Candida species (see Table 4 below), using the a serial dilution method in 96-well plates using the following protocol.
# (§5) Starter cultures of fungal strains to be tested were grown in 3 mL of RPMI 2% glucose media incubated at 37° C. with shaking at 200 rpm overnight. The culture media used was 900 mL H2O; 10.4 g RPMI 1640 (with L-glutamine and a pH indicator but without bicarbonate); 34.5 g MOPS and 18 g glucose. The pH of the media was adjusted to 7.0 with 1 M sodium hydroxide.
# (§6) Solutions of the compound to be tested were prepared by dissolving the compound in DMSO and subsequently into media to the desired concentrations. 200 μL of compound solution was then added to the wells of the 96-well plate using a serial dilution method row-by row of the plate to give a compound concentration gradient across the plate of from 128 μg/mL to 0.25 μg/mL. The last two rows of each plate were control rows containing the culture media alone and the media plus fungi.
# (§7) The fungi starter cultures were diluted 1:10 in water in cuvettes. This was then further diluted to an optical density (OD600) of 0.01 in media. 100 μL of the fungi was added to each well giving a starting concentration of fungus of 0.5-5×10^5/mL. One species of fungus was used on each plate. The plates were then held at 37° C. for 24 hours.
# (§8) A plate reader was used to measure growth in each well at OD530 nm and the MIC was determined for each test compound. The MIC is defined as the lowest concentration giving rise to inhibition of ≥50% of that of the drug-free control well containing the fungus and media.
# (§9) The compounds shown in Table 6 were tested against a further panel of Candida albicans.
# C. albicans 3645 = assay: Candida albicans panel MIC; assay type: cell-based; conditions: Table 6, Candida albicans panel
# Description: as §4, §5, §6, §7, §8, §9
# C. albicans 3880 = assay: Candida albicans panel MIC; assay type: cell-based; conditions: Table 6, Candida albicans panel
# Description: as §4, §5, §6, §7, §8, §9
# C. albicans 3881 = assay: Candida albicans panel MIC; assay type: cell-based; conditions: Table 6, Candida albicans panel
# Description: as §4, §5, §6, §7, §8, §9
# C. albicans 3882 = assay: Candida albicans panel MIC; assay type: cell-based; conditions: Table 6, Candida albicans panel
# Description: as §4, §5, §6, §7, §8, §9
# C. albicans 3990 = assay: Candida albicans panel MIC; assay type: cell-based; conditions: Table 6, Candida albicans panel
# Description: as §4, §5, §6, §7, §8, §9
# C. albicans 8112 = assay: Candida albicans panel MIC; assay type: cell-based; conditions: Table 6, Candida albicans panel
# Description: as §4, §5, §6, §7, §8, §9
# C. auris strain TDG1912 = assay: Galleria mellonella infection model, larval survival; assay type: in vivo; conditions: G. mellonella infected with C. auris TDG1912; survival over 120 hours
# Description: The effects of test compounds in-vivo was assessed using a Galleria mellonella infection model.
# G. mellonella were injected in a proleg with 10 μL of C. auris strain TDG1912 (OD4) at a concentration of 1×10^6 cfu/10 μL using a Hamilton syringe and left for 30 minutes to recover from injection and to allow infection to begin. The G. mellonella were then injected with 10 μL of the compound of the invention at either 50 mg/kg (10% DMSO) or 20 mg/kg (4% DMSO) or PBS containing 10% DMSO as an infection-only control. 10 larvae were selected for each treatment, and the experiment was repeated 3 times for the test compound and fluconazole. Survival of larvae was monitored for a 5 day period and results are presented as % survival over 120 hours (see FIG. 1).
# [1] = system: Galleria mellonella larvae; assay: Toxicity to larvae in the Galleria mellonella model; assay type: in vivo; conditions: dose of 50 mg/kg
smiles,measurement,setting,value
"OC(CN1CCC(Nc2ccc(OCCN3CCOCC3)cc2)CC1)(Cn1cncn1)c1ccc(F)cc1F (stereo not drawn) [Example 6, 2-(2,4-Difluorophenyl)-1-(4-((4-(2-morpholinoethoxy)phenyl)amino)piperidin-1-yl)-3-(1H-1,2,4-triazol-1-yl)propan-2-ol]",MIC,"C. albicans NCPF3281; Candida albicans, Table 4, common panel, 24 hours, ≥50% inhibition",4 ng/mL
same,MIC,"C. albicans NCPF3281; Table 6, Candida albicans panel",≤ 125 ng/mL
same,MIC,"C. glabrata NCPF8018; NCPF8018, read-out: MIC C. Glabrata NCPF8018",2 to 4 µg/mL
same,MIC,"C. glabrata NCPF8018; NCPF8018, Table 4, common panel, 24 hours, ≥50% inhibition, read-out: MIC C. glabrata NCPF8018",0.25 µg/mL
same,MIC,"C. krusei NCPF3876; NCPF3876, read-out: MIC C. Krusei NCPF3876",0.125 µg/mL
same,MIC,"C. krusei NCPF3876; NCPF3876, Table 4, common panel, 24 hours, ≥50% inhibition, read-out: MIC C. krusei NCPF3876",0.125 µg/mL
same,MIC,"C. parapsilosis NCPF3209; NCPF3209, read-out: MIC C. Parapsilosis NCPF3209",0.015 µg/mL
same,MIC,"C. parapsilosis NCPF3209; NCPF3209, Table 4, common panel, 24 hours, ≥50% inhibition, read-out: MIC C. parapsilosis NCPF3209",0.015 µg/mL
same,MIC,Candida auris TDG2211,0.5 µg/mL
same,MIC,Candida auris TDG2506,0.25 µg/mL
same,MIC,C. auris TDG1912,0.125 µg/mL
same,MIC,"C. tropicalis NCPF8760; NCPF8760, Table 4, common panel, 24 hours, ≥50% inhibition, read-out: MIC C. tropicalis NCPF8760",8 ng/mL
same,MIC,"C. tropicalis NCPF8760; NCPF8760, read-out: MIC C. Tropicalis NCPF8760",8 ng/mL
same,MIC,Candida auris TDG1102,0.12 µg/mL
same,MIC,Candida auris TDG2512,0.015 µg/mL
same,MIC,C. auris 8971,0.03 µg/mL
same,MIC,C. auris 8977,0.06 µg/mL
same,MIC,C. auris 8984,0.125 µg/mL
same,MIC,C. albicans 3363,0.25 µg/mL
same,MIC,C. albicans 3645,0.0156 µg/mL
same,MIC,C. albicans 3880,0.25 µg/mL
same,MIC,C. albicans 3881,0.5 µg/mL
same,MIC,C. albicans 3882,0.5 µg/mL
same,MIC,C. albicans 3990,0.25 µg/mL
same,MIC,C. albicans 8112,0.0156 µg/mL
same,Protection against multi-drug resistant C. auris (larval survival),C. auris strain TDG1912,statistically significant protection
same,Toxicity to the larvae,[1],No toxicity
